According to patent publication US20070142395A1, “Treatment of sexual dysfunction with 1-[3-[4-(3-chlorophenyl)-1-piperazinyl]propyl]-5-methoxy-3,4-dihydro-2(1H)-quinolone or salt thereof” (Vela Pharmaceuticals, Inc., priority 2005, published 2007):

Test system: patients with MDD
Assay: CSFQ shift analysis (sexual dysfunction / no sexual dysfunction by threshold), same clinical study
Format: in vivo, Humans
Conditions: shift baseline to Day 56, LOCF, 5 mg BID
Experimental: A double-blind, randomized, placebo-controlled, parallel-group study was performed to evaluate the efficacy, safety and tolerability of OPC-14523 in patients with MDD. The patients selected for participation in the trial had to meet DSM-IV-TR criteria for MDD (296.2x or 296.3x; diagnosis via MINI) and had had symptoms of depression for at least 2 months before the start of the double-blind treatment. Among other drugs prohibited during the study, patients were prohibited from taking drugs used to enhance sexual function, including, but not limited to, sildenafil, tadalafil and vardenafil, or taking psychopharmacologic drugs.
Each patient was expected to participate for up to 10 weeks. The 10 weeks included: i) a 4- to 10-day screening period, during which potential participants were administered placebo in a single-blind manner; ii) an 8-week double-blind treatment period; and iii) a 4- to 10- day post-treatment visit period. Baseline evaluations, including assessment of sexual function, were conducted on Day −1. The next day, Day 1, the double-blind medication was begun. All treatment was on an outpatient basis.
The dosages studied were 5 mg BID OPC-14523 (10 mg total daily dose of immediate release tablet of Example 1) and placebo. The drugs were taken after meals in the morning and in the evening, about 12 hours apart.
Data on sexual function were collected using the Changes in Sexual Function Questionnaire (CSFQ). The CSFQ is a 14-item self-report measure of sexual functioning vis-â-vis experiences of pleasure, desire, arousal, and orgasm, with a 5-point response option for each item. The 14-item validated CSFQ was developed from a questionnaire comprising 35 and 36 items for female and male respondents, respectively (Clayton et al., Psychopharmacol Bull. 33(4):731-45 (1997) and Clayton et al., Psychopharmacol Bull. 33(4):747-53 (1997), each incorporated herein by reference in its entirety). The CSFQ has also been independently validated (Bobes et al., J Sex Marital Ther. 26(2): 119-31(2000)). The 14-item CSFQ includes items 8, 11, 14, 19-24 from the interview version of the CSFQ (“CSFQ-I”); Clayton et al., Psychopharmacol Bull. 33(4):731-45 (1997)). The CSFQ differs for men and women, reflecting some variation in wording of items. Males were given the male clinical version, CSFQ-M-C, and women were given the female clinical version, CSFQ-F-C. CSFQ-F-C includes items 25, 27, 28, 30 and 31 from the questions for women on the CSFG-I. CSFQ-M-C includes items 28-32 from the questions for men on the CSFQ-I, as well as item 25 from the questions for women.
The 14-item CSFQ has subscales for sexual pleasure (1 item), desire/frequency (2 items), desire/interest (3 items), arousal (3 items), and orgasm (3 items). In addition, a 14-item total score may be calculated. Higher scores are indicative of more favorable sexual functioning. Threshold scores for total and sub-scales have been defined. A score below the threshold score indicates dysfunction.
The construction of shift tables is a routine analysis that is often carried out in the analysis of clinical trial data. For the data herein, the analysis was constructed by categorizing the subjects' scores at baseline and then separately at Day 56 according to having sexual dysfunction (SD) or no sexual dysfunction (NSD). These categories were defined by the threshold values specified in the CSFQ (see Table 4). The cross-classification of the baseline categories with the Day 56 categories results in a 2×2 table with the cells NSD/NSD, NSD/SD, SD/NSD, and SD/SD. Two categories represent the number and percent of subjects who stayed in the same category from baseline to Day 56 (NSD/NSD and SD/SD cells). The other two categories represent the number and percentage of subjects who shifted either for better (SD/NSD cell) or worse (NSD/SD cell). In the tables below, “remained low” refers to the SD/SD category. […]

## COc1cccc2c1CCC(=O)N2CCCN1CCN(c2cccc(Cl)c2)CC1 [OPC-14523, 1-[3-[4-(3-chlorophenyl)-1-piperazinyl]propyl]-5-methoxy-3,4-dihydro-2(1H)-quinolone]
All patients (men and women)
  CSFQ Arousal/Excitement: Improved (Low→Normal), %: 6%
  CSFQ Arousal/Excitement: Remained Low, %: 84%
  CSFQ Arousal/Excitement: Remained Normal, %: 7%
  CSFQ Arousal/Excitement: Worsened (Normal→Low), %: 3 (3%)
  CSFQ Desire/Frequency: Improved (Low→Normal), %: 13%
  CSFQ Desire/Frequency: Remained Low, %: 75%
  CSFQ Desire/Frequency: Remained Normal, %: 9%
  CSFQ Desire/Frequency: Worsened (Normal→Low), %: 3%
  CSFQ Desire/Interest: Improved (Low→Normal), %: 7%
  CSFQ Desire/Interest: Remained Low, %: 78%
  CSFQ Desire/Interest: Remained Normal, %: 12%
  CSFQ Desire/Interest: Worsened (Normal→Low), %: 3 (3%)
  CSFQ Orgasm/Completion: Improved (Low→Normal), %: 12%
  CSFQ Orgasm/Completion: Remained Low, %: 64%
  CSFQ Orgasm/Completion: Remained Normal, %: 17%
  CSFQ Orgasm/Completion: Worsened (Normal→Low), %: 7%
  CSFQ Pleasure: Improved (Low→Normal), %: 5%
  CSFQ Pleasure: Remained Low, %: 91%
  CSFQ Pleasure: Remained Normal, %: 3%
  CSFQ Pleasure: Worsened (Normal→Low), %: 0 (0%)
  CSFQ Total Score: Improved (Low→Normal), %: 16%
  CSFQ Total Score: Remained Low, %: 42%
  CSFQ Total Score: Remained Normal, %: 39%
  CSFQ Total Score: Worsened (Normal→Low), %: 3 (3%)
Men only
  CSFQ Arousal/Excitement: Improved (Low→Normal), %: 2%
  CSFQ Arousal/Excitement: Remained Low, %: 79%
  CSFQ Arousal/Excitement: Remained Normal, %: 15%
  CSFQ Arousal/Excitement: Worsened (Normal→Low), %: 4%
  CSFQ Desire/Frequency: Improved (Low→Normal), %: 13%
  CSFQ Desire/Frequency: Remained Low, %: 77%
  CSFQ Desire/Frequency: Remained Normal, %: 9%
  CSFQ Desire/Frequency: Worsened (Normal→Low), %: 2%
  CSFQ Desire/Interest: Improved (Low→Normal), %: 2%
  CSFQ Desire/Interest: Remained Low, %: 81%
  CSFQ Desire/Interest: Remained Normal, %: 17%
  CSFQ Desire/Interest: Worsened (Normal→Low), %: 0 (0%)
  CSFQ Orgasm/Completion: Improved (Low→Normal), %: 9%
  CSFQ Orgasm/Completion: Remained Low, %: 68%
  CSFQ Orgasm/Completion: Remained Normal, %: 15%
  CSFQ Orgasm/Completion: Worsened (Normal→Low), %: 9%
  CSFQ Pleasure: Improved (Low→Normal), %: 2%
  CSFQ Pleasure: Remained Low, %: 91%
  CSFQ Pleasure: Remained Normal, %: 6%
  CSFQ Pleasure: Worsened (Normal→Low), %: 0 (0%)
  CSFQ Total Score: Improved (Low→Normal), %: 15%
  CSFQ Total Score: Remained Low, %: 40%
  CSFQ Total Score: Remained Normal, %: 43%
  CSFQ Total Score: Worsened (Normal→Low), %: 2%
Women only
  CSFQ Arousal/Excitement: Improved (Low→Normal), %: 9%
  CSFQ Arousal/Excitement: Remained Low, %: 88%
  CSFQ Arousal/Excitement: Remained Normal, %: 1 (1%)
  CSFQ Arousal/Excitement: Worsened (Normal→Low), %: 1 (1%)
  CSFQ Desire/Frequency: Improved (Low→Normal), %: 13%
  CSFQ Desire/Frequency: Remained Low, %: 74%
  CSFQ Desire/Frequency: Remained Normal, %: 9%
  CSFQ Desire/Frequency: Worsened (Normal→Low), %: 4%
  CSFQ Desire/Interest: Improved (Low→Normal), %: 10%
  CSFQ Desire/Interest: Remained Low, %: 76%
  CSFQ Desire/Interest: Remained Normal, %: 9%
  CSFQ Desire/Interest: Worsened (Normal→Low), %: 4%
  CSFQ Orgasm/Completion: Improved (Low→Normal), %: 15%
  CSFQ Orgasm/Completion: Remained Low, %: 61%
  CSFQ Orgasm/Completion: Remained Normal, %: 18%
  CSFQ Orgasm/Completion: Worsened (Normal→Low), %: 6%
  CSFQ Pleasure: Improved (Low→Normal), %: 7%
  CSFQ Pleasure: Remained Low, %: 91%
  CSFQ Pleasure: Remained Normal, %: 1 (1%)
  CSFQ Pleasure: Worsened (Normal→Low), %: 0 (0%)
  CSFQ Total Score: Improved (Low→Normal), %: 16%
  CSFQ Total Score: Remained Low, %: 43%
  CSFQ Total Score: Remained Normal, %: 37%
  CSFQ Total Score: Worsened (Normal→Low), %: 3%
